Experimental data taken from patent publication US20080221086A1, “Novel Inhibitors of Glutaminyl Cyclase” (PROBIODRUG AG, priority 2006, published 2008).

Biological target: hQC (Homo sapiens, UniProt Q16769)
Experiment: Fluorometric assay of glutaminyl cyclase (QC) inhibition, H-Gln-βNA or H-Gln-AMC substrate
Type: biochemical
Conditions: read-out: IC50
How it was run: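 Ki values were obtained by fitting progress curves to a competitive-inhibition equation, and the rapid screen used 4 mM inhibitor with substrate at 1 KM. Both readouts coupled pyroglutamyl aminopeptidase at pH 8.0 and 30° C: H-Gln-βNA at 0.2 mM (ex/em 320/410 nm) or H-Gln-AMC (380/460 nm).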

Chain of hQC (Q16769 29-361): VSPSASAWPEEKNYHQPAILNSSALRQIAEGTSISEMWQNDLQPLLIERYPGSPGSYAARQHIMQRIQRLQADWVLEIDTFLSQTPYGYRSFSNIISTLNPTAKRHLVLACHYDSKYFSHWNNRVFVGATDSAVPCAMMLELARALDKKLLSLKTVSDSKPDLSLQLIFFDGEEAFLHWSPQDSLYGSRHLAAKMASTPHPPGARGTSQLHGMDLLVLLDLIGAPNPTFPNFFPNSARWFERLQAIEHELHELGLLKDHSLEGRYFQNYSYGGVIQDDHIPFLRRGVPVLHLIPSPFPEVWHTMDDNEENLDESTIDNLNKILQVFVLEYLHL

| Compound | IC50 |
| --- | --- |
| COC(=O)C(C)N=C1NC(=S)N(c2ccc3[nH]cnc3c2)C1c1ccccc1 (stereo not shown) [Compound 304, Methyl 2-(1-(1H-benzo[d]imidazol-5-yl)-5-phenyl-2-thioxoimidazolidin-4-ylideneamino)propanoate] | 7600 nM |
| O=C1N/C(=N/Cc2ccc3[nH]ccc3c2)C(c2cc(Br)cc(Br)c2)N1c1ccc2nc[nH]c2c1 (stereo not shown) [Compound 305, 1-(3H-Benzoimidazol-5-yl)-5-(3,5-dibromo-phenyl)-4-1H-indol-5-ylmethylimino-imidazolidin-2-one] | 4 nM |
| CN1CCCN(C(=O)C/N=C2/NC(=O)N(c3ccc4[nH]cnc4c3)C2c2ccc3c(c2)OCCO3)CC1 (stereo not shown) [Compound 306, 1-(1H-Benzoimidazol-5-yl)-5-(2,3-dihydro-benzo1,4dioxin-6-yl)-4-2-(4-methyl-1,4diazepan-1-yl)-2-oxo-ethylimino-imidazolidin-2-one] | 2200 nM |
| CN1CCCN(C(=O)C/N=C2/NC(=O)N(c3ccc4[nH]cnc4c3)C2c2ccc3[nH]ccc3c2)CC1 (stereo not shown) [Compound 307, 1-(1H-Benzoimidazol-5-yl)-5-(1H-indol-5-yl)-4-2-(4-methyl-1,4diazepan-1-yl)-2-oxo-ethylimino-imidazolidin-2-one] | 2200 nM |
| COCC/N=C1/NC(=O)N(c2ccc3[nH]cnc3c2)C1c1ccc(C)cc1 (stereo not shown) [Compound 308, 1-(1H-Benzoimidazol-5-yl)-4-2-methoxy-ethylimino-5-p-tolyl-imidazolidin-2-one] | 1300 nM |
| S=C1N/C(=N/Cn2nnc3ccccc32)C(c2ccc3ccccc3c2)N1c1ccc2[nH]cnc2c1 (stereo not shown) [Compound 309, 1-(1H-Benzoimidazol-5-yl)-4-benzotriazol-1-ylmethylimino-5-naphthalen-2-yl-imidazolidine-2-thione] | 1300 nM |
| O=C1N/C(=N/C2CC2)C(c2ccc(Br)cc2)N1c1ccc2nc[nH]c2c1 (stereo not shown) [Compound 310, 1-(3H-Benzoimidazol-5-yl)-5-(4-bromo-phenyl)-4-cyclopropylimino-imidazolidin-2-one] | 400 nM |
| S=C1N/C(=N\C2CCCc3ccccc32)C(c2cc(Br)cs2)N1c1ccc2nc[nH]c2c1 (stereo not shown) [Compound 311, 1-(3H-Benzoimidazol-5-yl)-5-(4-bromo-thiophen-2-yl)-4-1,2,3,4-tetrahydro-naphthalen-1-ylimino-imidazolidine-2-thione] | 5800 nM |
| OC1CCCCC1N=C1NC(=S)N(c2ccc3[nH]cnc3c2)C1c1ccc2nsnc2c1 (stereo not shown) [Compound 312, 1-(1H-Benzoimidazol-5-yl)-5-benzo[c][1,2,5]thiadiazol-5-yl-4-2-hydroxy-cyclohexylimino-imidazolidine-2-thione] | 9400 nM |
| Cc1ccc2occ(C3/C(=N/CCCc4ccccc4)NC(=S)N3c3ccc4[nH]cnc4c3)c(=O)c2c1 (stereo not shown) [Compound 313, 3-{3-(1H-Benzoimidazol-5-yl)-5-3-phenyl-propylimino-2-thioxo-imidazolidin-4-yl}-6-methyl-chromen-4-one] | 3100 nM |
| O=C1N/C(=N/CCc2cccs2)C(c2cc3c(cc2Br)OCO3)N1c1ccc2nc[nH]c2c1 (stereo not shown) [Compound 314, 1-(3H-Benzoimidazol-5-yl)-5-(6-bromo-benzo1,3dioxol-5-yl)-4-2-thiophen-2-yl-ethylimino-imidazolidin-2-one] | 4 nM |
| CC(CC1/C(=N/C2CCCCCC2)NC(=S)N1c1ccc2nc[nH]c2c1)CC(C)(C)C (stereo not shown) [Compound 315, 1-(3H-Benzoimidazol-5-yl)-4-cycloheptylimino-5-(2,4,4-trimethyl-pentyl)-imidazolidine-2-thione] | 7600 nM |
| CC1=CC(C)C(C2/C(=N/CC(=O)N3CCC(O)CC3)NC(=O)N2c2ccc3nc[nH]c3c2)CC1 (stereo not shown) [Compound 316, 1-(3H-Benzoimidazol-5-yl)-5-(2,4-dimethyl-cyclohex-3-enyl)-4-2-(4-hydroxy-piperidin-1-yl)-2-oxo-ethylimino-imidazolidin-2-one] | 7600 nM |
| CCc1ccccc1/N=C1\NC(=S)N(c2ccc3[nH]cnc3c2)C1c1ccccc1 (stereo not shown) [Compound 317, 1-(1H-Benzoimidazol-5-yl)-4-2-ethyl-phenylimino-5-phenyl-imidazolidine-2-thione] | 9400 nM |
| O=C1N/C(=N\C2CCCC2)C(c2ccc(Cl)c(F)c2)N1c1ccc2[nH]cnc2c1 (stereo not shown) [Compound 318, 1-(1H-Benzoimidazol-5-yl)-5-(4-chloro-3-fluoro-phenyl)-4-cyclopentylimino-imidazolidin-2-one] | 4 nM |
| COC(=O)C(C)/N=C1\NC(=S)N(c2ccc3[nH]cnc3c2)C1c1ccc(C)cc1 (stereo not shown) [Compound 320, Methyl 2-(1-(1H-benzo[d]imidazol-5-yl)-2-thioxo-5-p-tolylimidazolidin-4-ylideneamino)propanoate] | 5800 nM |
| O=C1CCCN1CCC/N=C1/NC(=O)N(c2ccc3nc[nH]c3c2)C1c1ccc(Br)cc1 (stereo not shown) [Compound 321, 1-(3H-Benzoimidazol-5-yl)-5-(4-bromo-phenyl)-4-3-(2-oxo-pyrrolidin-1-yl)-propylimino-imidazolidin-2-one] | 4 nM |
| CN(C)c1ccc(C2/C(=N\Cn3nnc4ccccc43)NC(=O)N2c2ccc3[nH]cnc3c2)cc1 (stereo not shown) [Compound 322, 1-(1H-Benzoimidazol-5-yl)-4-benzotriazol-1-ylmethylimino-5-(4-dimethylamino-phenyl)-imidazolidin-2-one] | 1300 nM |
| O=C1CCCN1CCC/N=C1/NC(=O)N(c2ccc3[nH]cnc3c2)C1c1ccc(Cl)c(F)c1 (stereo not shown) [Compound 323, 1-(1H-Benzoimidazol-5-yl)-5-(4-chloro-3-fluoro-phenyl)-4-3-(2-oxo-pyrrolidin-1-yl)-propylimino-imidazolidin-2-one] | 400 nM |
| Cc1cccc(C2/C(=N\Cn3nnc4ccccc43)NC(=O)N2c2ccc3[nH]cnc3c2)c1 (stereo not shown) [Compound 324, 1-(1H-Benzoimidazol-5-yl)-4-benzotriazol-1-ylmethylimino-5-m-tolyl-imidazolidin-2-one] | 3100 nM |
| O=C1N/C(=N/Cn2nnc3ccccc32)CN1c1ccc2[nH]cnc2c1 [Compound 325, 1-(1H-Benzoimidazol-5-yl)-4-benzotriazol-1-ylmethylimino-imidazolidin-2-one] | 6700 nM |
| O=C1N/C(=N\C(Cc2ccccc2)c2ccccc2)C(c2cc3c(cc2Br)OCO3)N1c1ccc2[nH]cnc2c1 (stereo not shown) [Compound 326, 1-(1H-Benzoimidazol-5-yl)-5-(6-bromo-benzo1,3dioxol-5-yl)-4-1,2-diphenyl-ethylimino-imidazolidin-2-one] | 4 nM |
| O=C(CN=C1NC(=O)N(c2ccc3[nH]cnc3c2)C1c1cc2c(cc1Br)OCO2)N1CCCCC1 (stereo not shown) [Compound 327, 4-(2-Oxo-2-(piperidin-1-yl)ethylimino)-1-(1H-benzo[d]imidazol-5-yl)-5-(5-bromobenzo[d][1,3]dioxol-6-yl)imidazolidin-2-one] | 4 nM |
| C/N=C1\NC(=O)N(c2ccc3[nH]cnc3c2)C1c1coc2ccc(C)cc2c1=O (stereo not shown) [Compound 328, 1-(1H-Benzoimidazol-5-yl)-4-methylimino-5-(6-methyl-4-oxo-4H-chromen-3-yl)-imidazolidin-2-one] | 1300 nM |
| Cc1ccc(C2/C(=N/C3CCCCC3O)NC(=O)N2c2ccc3nc[nH]c3c2)c(C)c1 (stereo not shown) [Compound 329, 1-(3H-Benzoimidazol-5-yl)-5-(2,4-dimethyl-phenyl)-4-2-hydroxy-cyclohexylimino-imidazolidin-2-one] | 6700 nM |
